Paper PMC3660741, “Structure of a pore-blocking toxin in complex with a eukaryotic voltage-dependent K^+ channel” (eLife, 2013)

Experiments:
[1] = system: Phe425Gly(Shaker); conditions: Gly10Val(AgTx2)–Phe425Gly(Shaker) pair; ref Ranganathan et al., 1996; cited from earlier work
Text: (§1) From analyzing mutants of AgTx2 and Shaker, MacKinnon and Ranganathan derived a coupling energy of >3 kT for the Gly10Val(AgTx2)–Phe425Gly(Shaker) pair and ∼1.5 kT for the Gly10Val(AgTx2)–Thr449Cys(Shaker) pair ([Ranganathan et al., 1996]). Phe425 and Thr449 in Shaker map onto Gln353 and Val377 in paddle chimera (Figure 2B).

[2] = system: Thr449Cys(Shaker); conditions: Gly10Val(AgTx2)–Thr449Cys(Shaker) pair; ref Ranganathan et al., 1996; cited from earlier work
Text: as §1

[3] = target: T1, Kv2.1 paddle–Kv1.2 chimera channel (paddle chimera) (Rattus norvegicus, UniProt P63142, DEL270-295/F267Y/F302L/I268V/INS296[…]/L298I/N207Q/V299M/V301I); test: CTX inhibition of paddle chimera in planar lipid bilayer, dose-response fitted for Kd; assay type: biochemical; conditions: CsCl vs KCl on both sides; planar bilayer of 20 mg/ml DPhPC; holding −110 mV, pulsed to +110 mV; n = 2–4
T1 construct: made in house; host or cells: Pichia pastoris
T1 sequence (P63142 with tags, fused parts or gaps with the stated changes): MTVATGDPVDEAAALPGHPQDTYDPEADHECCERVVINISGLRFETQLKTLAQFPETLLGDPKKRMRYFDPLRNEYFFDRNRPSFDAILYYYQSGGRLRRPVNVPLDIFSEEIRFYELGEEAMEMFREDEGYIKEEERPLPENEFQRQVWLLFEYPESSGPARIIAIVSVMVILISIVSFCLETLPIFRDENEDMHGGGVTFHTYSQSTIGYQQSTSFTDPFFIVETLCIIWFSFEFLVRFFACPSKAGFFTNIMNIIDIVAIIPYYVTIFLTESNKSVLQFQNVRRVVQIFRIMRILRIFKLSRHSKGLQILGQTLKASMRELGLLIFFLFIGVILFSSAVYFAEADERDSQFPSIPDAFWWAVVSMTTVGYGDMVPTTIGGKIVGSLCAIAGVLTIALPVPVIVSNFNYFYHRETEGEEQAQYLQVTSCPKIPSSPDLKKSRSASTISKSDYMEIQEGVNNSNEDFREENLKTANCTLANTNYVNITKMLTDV
T1 sequence (P62483 36-367 partner limits assumed): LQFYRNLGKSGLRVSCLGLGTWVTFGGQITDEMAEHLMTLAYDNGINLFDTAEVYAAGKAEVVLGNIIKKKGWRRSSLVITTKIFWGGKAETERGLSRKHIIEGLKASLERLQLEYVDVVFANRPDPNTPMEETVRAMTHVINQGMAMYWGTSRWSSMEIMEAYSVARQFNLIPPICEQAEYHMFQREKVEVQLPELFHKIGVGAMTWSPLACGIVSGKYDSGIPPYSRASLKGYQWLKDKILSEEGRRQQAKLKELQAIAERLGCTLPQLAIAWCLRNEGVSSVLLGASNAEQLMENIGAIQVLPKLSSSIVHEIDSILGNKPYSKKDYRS
Text: Figure 8. Effects of Lys27Met mutation of CTX and Cs^+ separately on toxin-channel interactions. (A) CTX inhibition. The fraction of unblocked current (I/Imax, mean ± SEM or range of mean; n = 2–4) is graphed as a function of CTX concentration (in nM) and fit to the equation I/Imax = 0.1 + 0.9 × (1 + [CTX]/Kd)^−1. Voltage pulses: holding −110 mV, depolarized to +110 mV, followed by a step back to −110 mV. Paddle chimera–wild-type CTX with KCl on both sides is shown in red, paddle chimera–wild-type CTX with CsCl on both sides is shown in blue and paddle chimera–Lys27Met CTX with KCl on both sides is shown in black. The modified equation accounts for approximately 10% current that is due largely to the channels facing the other side and are not blocked by toxin. (B) The pore domains from two diagonal subunits of paddle chimera (molecule A) in the Lys27MetCTX–paddle chimera complex are shown in green α carbon trace and a toxin-omit weighted 2Fo − Fc electron density map is shown in wire mesh at 1σ contour level. […]
The membranes were held at −110 mV and repeatedly pulsed to +110 mV test voltage. CTX inhibition data measured with different concentrations of CTX or Lys27Met mutant of CTX were fit to the equation: I/Imax=0.1+0.9×(1+[CTX]/Kd)^−1. […]

[4] = target: paddle chimera; conditions: planar lipid bilayers; ref Tao and MacKinnon, 2008; read-out: Kd (inhibition of paddle chimera); cited from earlier work
[5] = system: BK channel; conditions: 1988, cited from earlier work
Text: Charybdotoxin (CTX; Figure 1B), a pore-blocking toxin for K^+ channels, is a 37-residue peptide isolated from the venom of the scorpion Leiurus quinquestriatus ([Miller et al., 1985]).

[6] = system: Shaker K+ channel; conditions: cited from earlier work
Text: In studies with the BK channel, [MacKinnon and Miller (1988)] first observed that permeant ions coming through the channel from the intracellular side enhance the dissociation of a toxin bound to its receptor on the extracellular side.

[7] = target: Kv2.1 paddle–Kv1.2 chimera channel in complex with the rat β2-core subunit (rat) (UniProt P63142); test: planar lipid bilayer electrophysiology (inhibition of channel current)
[8] = system: Tyr445Phe(Shaker); conditions: ref Ranganathan et al., 1996, cited from earlier work
Text: Another case worth highlighting is the coupling energy, ∼1.5 kT, between the Lys27Met(AgTx2)–Tyr445Phe(Shaker) pair. Tyr445 in Shaker maps to Tyr373 in paddle chimera (Figure 2B; [Ranganathan et al., 1996]). Since mutation of Tyr to Phe incurs only a loss of the hydroxyl group, one likely interpretation of this would have been that Lys27 contacts the hydroxyl group of Tyr445. Intriguingly, Lys27 only contacts the backbone carbonyl oxygen of Tyr445, a point farthest from the hydroxyl group (Figure 10B). However, since this is a tightly packed part of the protein structure with the hydroxyl grou ...

charybdotoxin, wild type, sequence (P13487 23-59): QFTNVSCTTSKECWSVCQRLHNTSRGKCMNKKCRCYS

Substance: Gly10Val(AgTx2): Gly10Val mutant of AgTx2 (Ranganathan et al., 1996)
- coupling energy [1]: > 3 kT
- coupling energy [2]: ~1.5 kT

Substance: charybdotoxin [CTX]
- reduction in affinity in the presence of Cs+ compared to K+ [3]: ~10 fold
- Kd [4]: ~0.02 µM
- channel states competent for toxin binding ([5]; ref Anderson et al.): both the open and closed states of the channel are competent for toxin binding
- role of electrostatic interactions in affinity ([5]; ref Anderson et al.): electrostatic interactions play an important role in enhancing the toxin’s affinity
- voltage dependence of affinity ([5]; results from trans-enhanced dissociation by permeant ions entering from the intracellular side, ref MacKinnon and Miller): voltage dependent
- trans-enhanced dissociation effect of permeant ions on CTX block ([6]; ref Goldstein and Miller, 1993): subsequently confirmed for Shaker as well

Substance: mutation of Lys27 to Arginine: conservative mutation of Lys27 to Arginine, literature CTX mutant (Goldstein et al., 1994)
- destabilization of the toxin-channel complex ([6]; conservative mutation of Lys27 to Arginine, Shaker, ref Goldstein et al., 1994): ~1000 fold

Substance: charybdotoxin, wild type (from UniProt P13487 23-59) (peptide)
- fold reduction of affinity in Cs+ against K+ [7]: 10 fold

Substance: Lys27Met(AgTx2): Lys27Met mutant of AgTx2 (Ranganathan et al., 1996)
- K+ dependence of the interaction between the two residues ([8]; Lys27 (AgTx2) and Tyr445 (Shaker)): dependent on the K^+ concentration
- coupling energy ([8]; Lys27Met(AgTx2)–Tyr445Phe(Shaker) pair): ~1.5 kT
